Source: ChEMBL document CHEMBL1201862, “PubChem BioAssay data set” (2004)
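Values below derive from 48-hour exposures of cells grown in 96-well plates, with endpoints linearly interpolated between the two concentrations bracketing the appropriate inhibition level. At the GI50, growth is halved.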 Active and inactive are the calls of the source. Rule as the data show it: active = GI50 up to about 1.1 µM and inactive = higher.

Columns and labels:
Assay in all cases: inhibition of tumour cell growth, NCI panel, 48 h
[1] = tested on: NCI-H522
[2] = tested on: A498
[3] = tested on: PC-3
[4] = tested on: OVCAR-3
[5] = tested on: SR
[6] = tested on: HOP-92
[7] = tested on: HCT-116
[8] = tested on: MDA-MB-435
[9] = tested on: SW-620
[10] = tested on: UACC-62
[11] = tested on: MCF7
[12] = tested on: NCI-H226
[13] = tested on: LOX IMVI
[14] = tested on: NCI-H23
[15] = tested on: RPMI-8226
[16] = tested on: SF-295
[17] = tested on: UACC-257
[18] = tested on: EKVX
[19] = tested on: SK-MEL-28
[20] = tested on: UO-31
[21] = tested on: 786-0
[22] = tested on: SNB-75
[23] = tested on: HT-29
[24] = tested on: OVCAR-5
[25] = tested on: K562
[26] = tested on: SNB-19
[27] = tested on: NCI/ADR-RES
[28] = tested on: SK-MEL-5
[29] = tested on: T47D
[30] = tested on: SK-OV-3
[31] = tested on: COLO 205
[32] = tested on: SF-539
[33] = tested on: HCT-15
[34] = tested on: BT-549
[35] = tested on: ACHN
[36] = tested on: IGROV-1
[37] = tested on: Hs-578T
[38] = tested on: M14
[39] = tested on: Malme-3M
[40] = tested on: HOP-62
[41] = tested on: TK-10
[42] = tested on: SF-268
[43] = tested on: OVCAR-8
[44] = tested on: HCC 2998
[45] = tested on: A549
[46] = tested on: MDA-MB-231
[47] = tested on: SK-MEL-2
[48] = tested on: MDA-N
[49] = tested on: NCI-H460
[50] = tested on: SN12C
[51] = tested on: CAKI-1
[52] = tested on: OVCAR-4
[53] = tested on: CCRF-CEM
[54] = tested on: DU-145
[55] = tested on: RXF 393
[56] = tested on: KM12
[57] = tested on: U-251
[58] = tested on: MOLT-4
[59] = tested on: HL-60

## COc1cc(S(=O)(=O)Nc2ccc(-c3csc(/N=C\c4cccs4)n3)cc2)ccc1Cl
[1]
  GI50: 32.4 µM (inactive)
[2]
  GI50: 31.8 µM (inactive)
[3]
  GI50: > 100 µM (inactive)
[4]
  GI50: 54.6 µM (inactive)
[5]
  GI50: 15.7 µM (inactive)
[6]
  GI50: > 100 µM (inactive)
[7]
  GI50: 37.4 µM (inactive)
[8]
  GI50: 29.3 µM (inactive)
[9]
  GI50: 34.3 µM (inactive)
[10]
  GI50: 23.3 µM (inactive)
[11]
  GI50: 16.5 µM (inactive)
[12]
  GI50: 57.4 µM (inactive)
[13]
  GI50: 36.2 µM (inactive)
[14]
  GI50: 53.1 µM (inactive)
[15]
  GI50: 29 µM (inactive)
[16]
  GI50: > 100 µM (inactive)
[17]
  GI50: 51.8 µM (inactive)
[18]
  GI50: 28.1 µM (inactive)
[19]
  GI50: 35.9 µM (inactive)
[20]
  GI50: 45.5 µM (inactive)
[21]
  GI50: 59.3 µM (inactive)
[22]
  GI50: 30.3 µM (inactive)
[23]
  GI50: 57.1 µM (inactive)
[24]
  GI50: > 100 µM (inactive)
[25]
  GI50: 42.9 µM (inactive)
[26]
  GI50: 32.6 µM (inactive)
[27]
  GI50: > 100 µM (inactive)
[28]
  GI50: 42.3 µM (inactive)
[29]
  GI50: 19.2 µM (inactive)
[30]
  GI50: > 100 µM (inactive)
[31]
  GI50: 32.5 µM (inactive)
[32]
  GI50: 39.7 µM (inactive)
[33]
  GI50: > 100 µM
[34]
  GI50: 31.1 µM (inactive)
[35]
  GI50: > 100 µM (inactive)
[36]
  GI50: 69.7 µM (inactive)
[37]
  GI50: 68.2 µM (inactive)
[38]
  GI50: 61.8 µM (inactive)
[39]
  GI50: 78 µM (inactive)
[40]
  GI50: 67 µM (inactive)
[41]
  GI50: 49.9 µM (inactive)
[42]
  GI50: 33.7 µM (inactive)
[43]
  GI50: 87.5 µM (inactive)
[44]
  GI50: 29.4 µM (inactive)
[45]
  GI50: 78.7 µM (inactive)
[46]
  GI50: 87.7 µM (inactive)
[47]
  GI50: 96.6 µM (inactive)
[48]
  GI50: 34.4 µM (inactive)
[49]
  GI50: 53 µM (inactive)
[50]
  GI50: 89.5 µM (inactive)
[51]
  GI50: > 100 µM (inactive)
[52]
  GI50: > 100 µM (inactive)
[53]
  GI50: 19.8 µM (inactive)
[54]
  GI50: 29.4 µM (inactive)

## NC(CSC1(c2ccc(Cl)cc2)c2ccccc2-c2ccccc21)C(=O)O (stereo unspecified)
[55]
  GI50: 31.6 µM (inactive)
[1]
  GI50: 15.4 µM (inactive)
[2]
  GI50: 17.1 µM (inactive)
[3]
  GI50: 18.3 µM (inactive)
[4]
  GI50: 17.4 µM (inactive)
[5]
  GI50: 15.1 µM (inactive)
[6]
  GI50: 20.7 µM (inactive)
[7]
  GI50: 16.6 µM (inactive)
[56]
  GI50: 24.1 µM (inactive)
[8]
  GI50: 14.4 µM (inactive)
[9]
  GI50: 42.6 µM (inactive)
[10]
  GI50: 15.4 µM (inactive)
[11]
  GI50: 17.6 µM (inactive)
[12]
  GI50: 27.2 µM (inactive)
[13]
  GI50: 16.7 µM (inactive)
[14]
  GI50: 19.1 µM (inactive)
[15]
  GI50: 12.3 µM (inactive)
[57]
  GI50: 15.8 µM (inactive)
[16]
  GI50: 15.3 µM (inactive)
[17]
  GI50: 15.9 µM (inactive)
[18]
  GI50: 67.1 µM (inactive)
[19]
  GI50: > 100 µM (inactive)
[20]
  GI50: 28.7 µM (inactive)
[21]
  GI50: 20.8 µM (inactive)
[22]
  GI50: 22.2 µM (inactive)
[23]
  GI50: 37.8 µM (inactive)
[24]
  GI50: 30.3 µM (inactive)
[25]
  GI50: 26.2 µM (inactive)
[26]
  GI50: 21.3 µM (inactive)
[27]
  GI50: 39.1 µM (inactive)
[28]
  GI50: 16.2 µM (inactive)
[29]
  GI50: 29 µM (inactive)
[30]
  GI50: 25.1 µM (inactive)
[31]
  GI50: 15.5 µM (inactive)
[32]
  GI50: 20.9 µM (inactive)
[33]
  GI50: 21.6 µM
[34]
  GI50: 18.2 µM (inactive)
[58]
  GI50: 20 µM (inactive)
[35]
  GI50: 22.8 µM (inactive)
[36]
  GI50: 13.5 µM (inactive)
[37]
  GI50: 18.2 µM (inactive)
[38]
  GI50: 26.4 µM (inactive)
[59]
  GI50: 6.4 µM (inactive)
[39]
  GI50: 19.6 µM (inactive)
[40]
  GI50: 18.7 µM (inactive)
[41]
  GI50: 24.8 µM (inactive)
[42]
  GI50: 20.5 µM (inactive)
[43]
  GI50: 17.7 µM (inactive)
[45]
  GI50: 31.3 µM (inactive)
[46]
  GI50: 18 µM (inactive)
[47]
  GI50: 20.9 µM (inactive)
[48]
  GI50: > 100 µM (inactive)
[49]
  GI50: 18.1 µM (inactive)
[50]
  GI50: 19.1 µM (inactive)
[51]
  GI50: 33.5 µM (inactive)
[52]
  GI50: 22.2 µM (inactive)
[53]
  GI50: 29.1 µM (inactive)
[54]
  GI50: 34.5 µM (inactive)

## CCOc1ccc(/N=N/C2C(=O)N(C(=O)CC(=O)Nc3ccc(C)cc3)N=C2C)cc1 (stereo unspecified)
[2]
  GI50: 13.2 µM (inactive)
[3]
  GI50: > 100 µM (inactive)
[4]
  GI50: 20.6 µM (inactive)
[5]
  GI50: 14 µM (inactive)
[6]
  GI50: 16.7 µM (inactive)
[7]
  GI50: 12.4 µM (inactive)
[56]
  GI50: 8.47 µM (inactive)
[8]
  GI50: 2.94 µM (inactive)
[9]
  GI50: 21.6 µM (inactive)
[10]
  GI50: 16.7 µM (inactive)
[11]
  GI50: 40.6 µM (inactive)
[12]
  GI50: 26.3 µM (inactive)
[13]
  GI50: 14.6 µM (inactive)
[14]
  GI50: 26.5 µM (inactive)
[57]
  GI50: 15.1 µM (inactive)
[16]
  GI50: 21.2 µM (inactive)
[17]
  GI50: > 100 µM (inactive)
[18]
  GI50: 6.68 µM (inactive)
[19]
  GI50: 30.8 µM (inactive)
[20]
  GI50: 29.4 µM (inactive)
[21]
  GI50: 16 µM (inactive)
[22]
  GI50: 8.02 µM (inactive)
[23]
  GI50: 24 µM (inactive)
[24]
  GI50: > 100 µM (inactive)
[26]
  GI50: 14.3 µM (inactive)
[27]
  GI50: 24.4 µM (inactive)
[28]
  GI50: 72.3 µM (inactive)
[29]
  GI50: 37.8 µM (inactive)
[31]
  GI50: > 100 µM (inactive)
[32]
  GI50: 14.8 µM (inactive)
[33]
  GI50: 38.1 µM
[34]
  GI50: 23.6 µM (inactive)
[58]
  GI50: 14.7 µM (inactive)
[35]
  GI50: 50.8 µM (inactive)
[36]
  GI50: 15.9 µM (inactive)
[37]
  GI50: 5.73 µM (inactive)
[38]
  GI50: 52.7 µM (inactive)
[59]
  GI50: 13.1 µM (inactive)
[39]
  GI50: 47.5 µM (inactive)
[40]
  GI50: 16 µM (inactive)
[41]
  GI50: 24.8 µM (inactive)
[42]
  GI50: 22.3 µM (inactive)
[43]
  GI50: 16.6 µM (inactive)
[44]
  GI50: 19 µM (inactive)
[45]
  GI50: 34.7 µM (inactive)
[46]
  GI50: 17 µM (inactive)
[47]
  GI50: 26.6 µM (inactive)
[48]
  GI50: 2.7 µM (inactive)
[49]
  GI50: 14.8 µM (inactive)
[50]
  GI50: 35.2 µM (inactive)
[51]
  GI50: 26.5 µM (inactive)
[52]
  GI50: 25.3 µM (inactive)
[53]
  GI50: 43.6 µM (inactive)
[54]
  GI50: 38.6 µM (inactive)
